Measurements published in the NIST ThermoML archive (doi:10.1021/je201211f).

Experiments:
[1] = refractive index (Na D-line) (dimensionless); xn = mol fraction of the nth substance listed; conditions: 298.15 K, 101 kPa, Liquid
[2] = xn = mol fraction of the nth substance listed; conditions: 101 kPa, Liquid; for mass density: Vibrating tube method; for viscosity: Capillary tube (Ostwald / Ubbelohde) method

Cc1ccc(C)cc1 [1,4-dimethylbenzene] + CC(=O)O
[1]
Conditions	refractive index
x2 = 0.0863	1.4874
x2 = 0.173	1.4805
x2 = 0.2386	1.4748
x2 = 0.3096	1.4682
x2 = 0.3987	1.4598
x2 = 0.4897	1.4498
x2 = 0.5621	1.4414
x2 = 0.6323	1.4325
x2 = 0.7212	1.4202
x2 = 0.7965	1.4084
x2 = 0.8784	1.3939
x2 = 0.955	1.3791

[2]
Conditions	mass density, 293.15 K [kg/m3]	mass density, 298.15 K [kg/m3]	mass density, 303.15 K [kg/m3]	viscosity, 298.15 K [mPa·s]
x2 = 0.0415	864.09	859.71	855.31	–
x2 = 0.0863	–	–	–	0.6099
x2 = 0.1166	870.08	865.62	861.15	–
x2 = 0.157	873.55	869.05	864.53	–
x2 = 0.1651	874.28	869.76	865.24	–
x2 = 0.173	–	–	–	0.6095
x2 = 0.2386	–	–	–	0.6117
x2 = 0.2466	882	877.4	872.79	–
x2 = 0.2659	884.01	879.38	874.76	–
x2 = 0.3096	–	–	–	0.6159
x2 = 0.3246	890.49	885.78	881.08	–
x2 = 0.3987	–	–	–	0.625
x2 = 0.4234	902.44	897.64	892.81	–
x2 = 0.4717	909.04	904.17	899.29	–
x2 = 0.4897	–	–	–	0.6398
x2 = 0.5505	921.33	916.35	911.38	–
x2 = 0.5621	–	–	–	0.6575
x2 = 0.6323	–	–	–	0.68
x2 = 0.6435	938.19	933.07	927.95	–
x2 = 0.7212	–	–	–	0.7243
x2 = 0.7299	957.01	951.78	946.53	–
x2 = 0.7965	–	–	–	0.7753
x2 = 0.8099	977.97	972.61	967.24	–
x2 = 0.8784	–	–	–	0.8675
x2 = 0.8851	1001.76	996.29	990.81	–
x2 = 0.955	–	–	–	1.003
x2 = 0.9601	1030.99	1025.4	1019.76	–

ClC=C(Cl)Cl [trichloroethene] + Cc1ccc(C)cc1
Conditions	mass density [kg/m3]	refractive index	viscosity [mPa·s]
[1], Standard Abbe refractometry, x1 = 0.0897	–	1.4921	–
[1], Standard Abbe refractometry, x1 = 0.154	–	1.4911	–
[1], Standard Abbe refractometry, x1 = 0.2402	–	1.4897	–
[1], Standard Abbe refractometry, x1 = 0.318	–	1.4885	–
[1], Standard Abbe refractometry, x1 = 0.399	–	1.4873	–
[1], Standard Abbe refractometry, x1 = 0.4801	–	1.486	–
[1], Standard Abbe refractometry, x1 = 0.5624	–	1.4844	–
[1], Standard Abbe refractometry, x1 = 0.64	–	1.4829	–
[1], Standard Abbe refractometry, x1 = 0.721	–	1.4811	–
[1], Standard Abbe refractometry, x1 = 0.7988	–	1.4794	–
[1], Standard Abbe refractometry, x1 = 0.8834	–	1.4775	–
[1], Standard Abbe refractometry, x1 = 0.961	–	1.4753	–
[2], 293.15 K, x1 = 0.0843	899.17	–	–
[2], 293.15 K, x1 = 0.1806	944.97	–	–
[2], 293.15 K, x1 = 0.2528	980.96	–	–
[2], 293.15 K, x1 = 0.3239	1017.91	–	–
[2], 293.15 K, x1 = 0.403	1060.83	–	–
[2], 293.15 K, x1 = 0.49	1110.44	–	–
[2], 293.15 K, x1 = 0.5689	1157.79	–	–
[2], 293.15 K, x1 = 0.6381	1201.31	–	–
[2], 293.15 K, x1 = 0.7202	1255.5	–	–
[2], 293.15 K, x1 = 0.7975	1309.15	–	–
[2], 293.15 K, x1 = 0.8925	1379.16	–	–
[2], 293.15 K, x1 = 0.9582	1430.28	–	–
[2], 298.15 K, x1 = 0.0843	894.6	–	–
[2], 298.15 K, x1 = 0.0897	–	–	0.6075
[2], 298.15 K, x1 = 0.154	–	–	0.606
[2], 298.15 K, x1 = 0.1806	940.12	–	–
[2], 298.15 K, x1 = 0.2402	–	–	0.6043
[2], 298.15 K, x1 = 0.2528	975.88	–	–
[2], 298.15 K, x1 = 0.318	–	–	0.6026
[2], 298.15 K, x1 = 0.3239	1012.59	–	–
[2], 298.15 K, x1 = 0.399	–	–	0.5999
[2], 298.15 K, x1 = 0.403	1055.25	–	–
[2], 298.15 K, x1 = 0.4801	–	–	0.5968
[2], 298.15 K, x1 = 0.49	1104.53	–	–
[2], 298.15 K, x1 = 0.5624	–	–	0.594
[2], 298.15 K, x1 = 0.5689	1151.57	–	–
[2], 298.15 K, x1 = 0.6381	1194.8	–	–
[2], 298.15 K, x1 = 0.64	–	–	0.5915
[2], 298.15 K, x1 = 0.718	–	–	0.5888
[2], 298.15 K, x1 = 0.7202	1248.62	–	–
[2], 298.15 K, x1 = 0.7975	1301.88	–	–
[2], 298.15 K, x1 = 0.8	–	–	0.5861
[2], 298.15 K, x1 = 0.8834	–	–	0.5834
[2], 298.15 K, x1 = 0.8925	1371.4	–	–
[2], 298.15 K, x1 = 0.9582	1422.14	–	–
[2], 298.15 K, x1 = 0.9632	–	–	0.5808
[2], 303.15 K, x1 = 0.0843	890.02	–	–
[2], 303.15 K, x1 = 0.1806	935.27	–	–
[2], 303.15 K, x1 = 0.2528	970.8	–	–
[2], 303.15 K, x1 = 0.3239	1007.28	–	–
[2], 303.15 K, x1 = 0.403	1049.65	–	–
[2], 303.15 K, x1 = 0.49	1098.61	–	–
[2], 303.15 K, x1 = 0.5689	1145.35	–	–
[2], 303.15 K, x1 = 0.6381	1188.25	–	–
[2], 303.15 K, x1 = 0.7202	1241.69	–	–
[2], 303.15 K, x1 = 0.7975	1294.56	–	–
[2], 303.15 K, x1 = 0.8925	1363.59	–	–
[2], 303.15 K, x1 = 0.9582	1413.95	–	–

ClC=C(Cl)Cl [trichloroethene] + Cc1cccc(C)c1
[1]
Conditions	refractive index
x1 = 0.085	1.4932
x1 = 0.1622	1.4922
x1 = 0.2415	1.4908
x1 = 0.3204	1.4894
x1 = 0.3935	1.488
x1 = 0.496	1.4859
x1 = 0.5613	1.4845
x1 = 0.6429	1.4825
x1 = 0.7226	1.4807
x1 = 0.8061	1.4789
x1 = 0.8832	1.4773
x1 = 0.9596	1.4756

[2]
Conditions	mass density, 293.15 K [kg/m3]	mass density, 298.15 K [kg/m3]	mass density, 303.15 K [kg/m3]	viscosity, 298.15 K [mPa·s]
x1 = 0.0494	886.2	881.77	877.34	–
x1 = 0.0768	–	–	–	0.5895
x1 = 0.0796	899.93	895.43	890.91	–
x1 = 0.1465	–	–	–	0.5893
x1 = 0.1531	934.34	929.62	924.88	–
x1 = 0.23	971.87	966.92	961.95	–
x1 = 0.2415	–	–	–	0.5895
x1 = 0.3097	1012.52	1007.32	1002.09	–
x1 = 0.3204	–	–	–	0.5897
x1 = 0.3935	–	–	–	0.5893
x1 = 0.4065	1064.66	1059.1	1053.53	–
x1 = 0.4841	1108.6	1102.78	1096.93	–
x1 = 0.496	–	–	–	0.5883
x1 = 0.5561	1151.33	1145.2	1139.05	–
x1 = 0.5613	–	–	–	0.5875
x1 = 0.6423	–	–	–	0.5863
x1 = 0.6453	1206.86	1200.35	1193.84	–
x1 = 0.709	1248.6	1241.79	1234.95	–
x1 = 0.7204	–	–	–	0.5851
x1 = 0.7639	–	–	–	0.5844
x1 = 0.7989	1310.61	1303.35	1296.06	–
x1 = 0.8774	–	–	–	0.5823
x1 = 0.8937	1380.16	1372.41	1364.61	–
x1 = 0.9596	–	–	–	0.5808
x1 = 0.974	1442.88	1434.66	1426.38	–
